Results as given in patent US20260184663A1, “INDENE COMPOUNDS, PHARMACEUTICAL COMPOSITIONS THEREOF, AND THEIR THERAPEUTIC APPLICATIONS” (NucMito Pharmaceuticals co. Ltd., priority 2022, published 2026).

How the values were obtained:
Format in all cases: cell-based
[1] = tested on: MDA-MB-231 (breast cancer); experiment: Antiproliferative activity (CCK-8 cell viability), MDA-MB-231; conditions: Homo sapiens, 72 h, read-out: Antiproliferative activity in cancerous cells, MDA-MB-231 (inhibition of cell growth); for inhibition at 3.3 µM: Compound concentration: 3.3 μM; for inhibition at 10 µM: Compound concentration: 10 μM
How it was run: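 Growth inhibition of human MDA-MB-231 breast cancer cells was assessed with a Cell Counting Kit-8. Cells cultured in DMEM plus 10% FBS were seeded at 2,000-5,000 cells/well, treated after attachment, and kept 72 h at 37° C. CCK-8 solution (10 μL) was added for 4 h, and absorbance at 450 nm was compared with DMSO-treated controls.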

HepG2 (liver cancer) = experiment: Antiproliferative activity (CCK-8 cell viability), HepG2; conditions: Homo sapiens, 72 h, read-out: Antiproliferative activity in cancerous cells, HepG2 (inhibition of cell growth); for inhibition at 3.3 µM: Compound concentration: 3.3 μM; for inhibition at 10 µM: Compound concentration: 10 μM
How it was run: (§1)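 Growth inhibition graded in bands from percent viability against DMSO vehicle, read as CCK-8 absorbance at 450 nm. Compound tested at 3.3, 10 or 30 μM for 72 h, 37 °C; media contained 10% FBS: DMEM for HepG2/SW480, MEM for HeLa, F-12K for A549.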

SW480 (colon cancer) = experiment: Antiproliferative activity (CCK-8 cell viability), SW480; conditions: Homo sapiens, 72 h, read-out: Antiproliferative activity in cancerous cells, SW480 (inhibition of cell growth); for inhibition at 3.3 µM: Compound concentration: 3.3 μM; for inhibition at 10 µM: Compound concentration: 10 μM
How it was run: as §1

[2] = tested on: B16F10 (malignant melanoma); experiment: Antiproliferative activity (CCK-8 cell viability), B16F10; conditions: Mus musculus, 72 h, read-out: Antiproliferative activity in cancerous cells, B16F10 (inhibition of cell growth); for inhibition at 3.3 µM: B16-F10, Compound concentration: 3.3 μM; for inhibition at 10 µM: B16-F10, Compound concentration: 10 μM
How it was run: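 Cell growth inhibition was measured in B16F10 malignant melanoma cells with a Cell Counting Kit-8 viability assay. Cells were maintained in DMEM plus 10% fetal bovine serum, seeded at 2,000-5,000 cells/well in 96-well plates, and treated for 72 h at 37° C. Viability was expressed relative to DMSO-treated vehicle control wells.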

[3] = tested on: A431 (epidermoid carcinoma); experiment: Antiproliferative activity (CCK-8 cell viability), A431; conditions: Homo sapiens, 72 h, read-out: Antiproliferative activity in cancerous cells, A431 (inhibition of cell growth); for inhibition at 3.3 µM: A-431, Compound concentration: 3.3 μM; for inhibition at 10 µM: A-431, Compound concentration: 10 μM
How it was run: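 This growth inhibition assay used A431 cells maintained in Dulbecco's modified Eagle's medium plus 10% fetal bovine serum. Cells were seeded in 96-well plates, treated with compound for 72 h at 37° C., and then given 10 μL CCK-8 solution. After a further 4 h, absorbance was read at 450 nm.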

[4] = tested on: A549 (lung adenocarcinoma); experiment: Antiproliferative activity (CCK-8 cell viability), A549; conditions: Homo sapiens, 72 h, read-out: Antiproliferative activity in cancerous cells, A549 (inhibition of cell growth); for inhibition at 3.3 µM: Compound concentration: 3.3 μM; for inhibition at 10 µM: Compound concentration: 10 μM
How it was run: as §1

HeLa (cervical cancer) = experiment: Antiproliferative activity (CCK-8 cell viability), HeLa; conditions: Homo sapiens, 72 h, read-out: Antiproliferative activity in cancerous cells, HELA (inhibition of cell growth); for inhibition at 3.3 µM: Compound concentration: 3.3 μM; for inhibition at 10 µM: Compound concentration: 10 μM
How it was run: as §1

| Compound | inhibition at 3.3 µM [1] [%] | inhibition at 10 µM [1] [%] | inhibition at 3.3 µM (HepG2 (liver cancer)) [%] | inhibition at 10 µM (HepG2 (liver cancer)) [%] | inhibition at 3.3 µM (SW480 (colon cancer)) [%] | inhibition at 10 µM (SW480 (colon cancer)) [%] | inhibition at 3.3 µM [2] [%] | inhibition at 10 µM [2] [%] | inhibition at 3.3 µM [3] [%] | inhibition at 10 µM [3] [%] | inhibition at 3.3 µM [4] [%] | inhibition at 10 µM [4] [%] | inhibition at 3.3 µM (HeLa (cervical cancer)) [%] | inhibition at 10 µM (HeLa (cervical cancer)) [%] |
| --- | --- | --- | --- | --- | --- | --- | --- | --- | --- | --- | --- | --- | --- | --- |
| CCc1ccc2c(c1)C(CC(=O)O)=C(C)/C2=C/c1cccc(COc2ccc(F)cc2)c1 [B71, (Z)-2-(5-Ethyl-1-(3-((4-fluorophenoxy)methyl)benzylidene)-2-methyl-1H-inden-3-yl)acetic acid] | < 30 | ≥ 50 | < 30 | < 30 | < 30 | < 30 | < 30 | ≥ 50 | ≥ 50 | ≥ 50 | 30 to 50 | ≥ 50 | < 30 | ≥ 50 |
| CCc1ccc(Oc2ccc(/C=C3/C(C)=C(CC(=O)O)c4cc(Cl)ccc43)cc2)cc1 [C85, (Z)-2-(5-Chloro-1-(4-(4-ethylphenoxy)benzylidene)-2-methyl-1H-inden-3-yl)acetic acid] | ≥ 50 | ≥ 50 | ≥ 50 | ≥ 50 | < 30 | ≥ 50 | 30 to 50 | ≥ 50 | ≥ 50 | ≥ 50 | < 30 | ≥ 50 | ≥ 50 | ≥ 50 |
| CC1=C(CC(=O)O)c2cc(Cl)ccc2/C1=C\c1ccc(COCc2ccc(Cl)cc2)cc1 [B115, (Z)-2-(5-Chloro-1-(4-(((4-chlorobenzyl)oxy)methyl)benzylidene)-2-methyl-1H-inden-3-yl)acetic acid] | < 30 | < 30 | ≥ 50 | ≥ 50 | < 30 | ≥ 50 | 30 to 50 | ≥ 50 | ≥ 50 | ≥ 50 | 30 to 50 | ≥ 50 | < 30 | ≥ 50 |
| CC1=C(CC(=O)O)c2cc(Cl)c(Cl)cc2/C1=C\c1ccc(Oc2ccc(F)cc2)cc1 [C83, (Z)-2-(5,6-Dichloro-1-(4-(4-fluorophenoxy)benzylidene)-2-methyl-1H-inden-3-yl)acetic acid] | ≥ 50 | ≥ 50 | < 30 | ≥ 50 | ≥ 50 | ≥ 50 | ≥ 50 | ≥ 50 | ≥ 50 | ≥ 50 | ≥ 50 | ≥ 50 | ≥ 50 | ≥ 50 |
| CC1=C(CC(=O)O)c2cc(F)ccc2/C1=C\c1ccc(COCc2ccc(F)cc2)cc1 [B101, (Z)-2-(5-Fluoro-1-(4-(((4-fluorobenzyl)oxy)methyl)benzylidene)-2-methyl-1H-inden-3-yl)acetic acid] | ≥ 50 | ≥ 50 | 30 to 50 | ≥ 50 | < 30 | ≥ 50 | < 30 | ≥ 50 | < 30 | 30 to 50 | 30 to 50 | ≥ 50 | < 30 | ≥ 50 |
| CC1=C(CC(=O)O)c2cc(C)ccc2/C1=C\c1ccc(COCc2ccc(F)cc2)cc1 [B110, (Z)-2-(1-(4-(((4-Fluorobenzyl)oxy)methyl)benzylidene)-2,5-dimethyl-1H-inden-3-yl)acetic acid] | ≥ 50 | ≥ 50 | < 30 | 30 to 50 | < 30 | ≥ 50 | ≥ 50 | ≥ 50 | 30 to 50 | ≥ 50 | 30 to 50 | ≥ 50 | < 30 | ≥ 50 |
| CC1=C(CC(=O)O)c2cc(F)ccc2/C1=C\c1ccc(COc2ccc(Cl)cc2)cc1C [B73, (Z)-2-(1-(4-((4-Chlorophenoxy)methyl)-2-methylbenzylidene)-5-fluoro-2-methyl-1H-inden-3-yl)acetic acid] | < 30 | < 30 | < 30 | ≥ 50 | 30 to 50 | ≥ 50 | 30 to 50 | 30 to 50 | ≥ 50 | ≥ 50 | < 30 | ≥ 50 | 30 to 50 | ≥ 50 |
| CC1=C(CC(=O)O)c2cc(F)ccc2/C1=C\c1cccc(Sc2ccc(F)cc2)c1 [C42, (Z)-2-(5-Fluoro-1-(3-((4-fluorophenyl)thio)benzylidene)-2-methyl-1H-inden-3-yl)acetic acid] | ≥ 50 | ≥ 50 | < 30 | ≥ 50 | < 30 | ≥ 50 | 30 to 50 | ≥ 50 | < 30 | ≥ 50 | < 30 | ≥ 50 | < 30 | ≥ 50 |
| CCc1ccc2c(c1)C(CC(=O)O)=C(C)/C2=C/c1ccc(COc2ccc(F)cc2)cc1 [B52, (Z)-2-(5-Ethyl-1-(4-((4-fluorophenoxy)methyl)benzylidene)-2-methyl-1H-inden-3-yl)acetic acid] | ≥ 50 | ≥ 50 | < 30 | ≥ 50 | 30 to 50 | ≥ 50 | ≥ 50 | ≥ 50 | 30 to 50 | ≥ 50 | 30 to 50 | ≥ 50 | 30 to 50 | ≥ 50 |
